Structures are written as SMILES.

The target of one data set is HIV-1 RT (Human immunodeficiency virus type 1 group M subtype B, UniProt P03366). Put plainly: HIV Reverse Transcriptase Assay: Inhibitor IC50 Determination. As to conditions: purified recombinant enzyme, poly(rA)/oligo(dT)16 template-primer, 37° C. 30 min. Type of data set: biochemical. The protocol:
HIV Reverse Transcriptase Assay: Inhibitor IC50 Determination
HIV-1 RT assay was carried out in 96-well Millipore MultiScreen MADVNOB50 plates using purified recombinant enzyme and a poly(rA)/oligo(dT)16 template-primer in a total volume of 50 μL. The assay constituents were 50 mM Tris/HCl, 50 mM NaCl, 1 mM EDTA, 6 mM MgCl2, 5 μM dTTP, 0.15 μCi [^3H] dTTP, 5 μg/ml poly (rA) pre annealed to 2.5 μg/ml oligo (dT)16 and a range of inhibitor concentrations in a final concentration of 10% DMSO. Reactions were initiated by adding 4 nM HIV-1 RT and after incubation at 37° C. for 30 min, they were stopped by the addition of 50 μl ice cold 20% TCA and allowed to precipitate at 4° C. for 30 min. The precipitates were collected by applying vacuum to the plate and sequentially washing with 3×200 μl of 10% TCA and 2×200 μl 70% ethanol. Finally, the plates were dried and radioactivity counted in a Packard TopCounter after the addition of 25 μl scintillation fluid per well. IC50's were calculated by plotting % inhibition versus log10 inhibitor concentrations.

The subject of another data set is HIV-1. Put plainly: Anti-Viral Assay (method of Pauwels et al.). Particulars: Human immunodeficiency virus 1, read-out: Anti-Viral Assay. Type of data set: cell-based. The protocol:
Anti-viral assays were carried out by the method described by R. E. Pauwels et al. J. Virol. Methods 1988 20(4):309-322.

As to `Cc1cc(C#N)ccc1Oc1ccc(CC(=O)Nc2ccc(S(N)(=O)=O)cc2Br)c(C)c1C` [Compound I-24, N-(2-Bromo-4-sulfamoyl-phenyl)-2-[4-(4-cyano-2-methyl-phenoxy)-2,3-dimethyl-phenyl]-acetamide], the IC50 on HIV-1 RT worked out at 202 nM. Moreover, the EC50 in the data set with HIV-1 amounted to 2.6 nM.
As to `Cc1cc(S(N)(=O)=O)ccc1NC(=O)Cc1ccc(Oc2c(Cl)cccc2Cl)c(Cl)c1` [Compound I-41, 2-[3-Chloro-4-(2,6-dichloro-phenoxy)-phenyl]-N-(2-methyl-4-sulfamoyl-phenyl)-acetamide], at HIV-1 RT, the IC50 stood at 162 nM.
The same measure, in the same setting: to `Cc1cc(S(N)(=O)=O)ccc1NC(=O)Cc1ccc(Oc2ccc(C#N)cc2C)c(Cl)c1` [Compound I-43, 2-[3-Chloro-4-(4-cyano-2-methyl-phenoxy)-phenyl]-N-(2-methyl-4-sulfamoyl-phenyl)-acetamide] belongs 695 nM; to `Cc1cc(C#N)ccc1Oc1ccc(CC(=O)Nc2ccc(S(N)(=O)=O)cc2Cl)cc1Cl` [Compound I-44, 2-[3-Chloro-4-(4-cyano-2-methyl-phenoxy)-phenyl]-N-(2-chloro-4-sulfamoyl-phenyl)-acetamide], 71.5 nM.
Same read-out and setting: to `NS(=O)(=O)c1ccc(NC(=O)Cc2ccc(Oc3c(Cl)cccc3Cl)c(Cl)c2)c(Cl)c1` [Compound I-45, 2-[3-Chloro-4-(2,6-dichloro-phenoxy)-phenyl]-N-(2-chloro-4-sulfamoyl-phenyl)-acetamide] belongs 63.4 nM; to `N#Cc1cc(Cl)cc(Oc2ccc(CC(=O)Nc3ccc(S(N)(=O)=O)cc3)cc2Br)c1` [Compound I-46, 2-[3-Bromo-4-(3-chloro-5-cyano-phenoxy)-phenyl]-N-(4-sulfamoyl-phenyl)-acetamide], 6000 nM.
`Cc1cc(S(N)(=O)=O)ccc1NC(=O)Cc1ccc(Oc2cc(Cl)cc(C#N)c2)c(Br)c1` [Compound I-47, 2-[3-Bromo-4-(3-chloro-5-cyano-phenoxy)-phenyl]-N-(2-methyl-4-sulfamoyl-phenyl)-acetamide]: the melting point is 214.6 to 215.9 °C. For the same compound, the IC50 at HIV-1 RT amounted to 339 nM.
The matching figures for `N#Cc1cc(Cl)cc(Oc2ccc(CC(=O)Nc3ccc(S(N)(=O)=O)cc3Cl)cc2Br)c1` [Compound I-48, 2-[3-Bromo-4-(3-chloro-5-cyano-phenoxy)-phenyl]-N-(2-chloro-4-sulfamoyl-phenyl)-acetamide]: 205 to 207.3 °C and 19.1 nM.
The compound `N#Cc1cc(Cl)cc(Oc2ccc(CC(=O)Nc3ccc(CS(N)(=O)=O)cc3)cc2Br)c1` [Compound I-49, 2-[3-Bromo-4-(3-chloro-5-cyano-phenoxy)-phenyl]-N-(4-sulfamoylmethyl-phenyl)-acetamide] showed a melting point of 133.4 to 135.3 °C. For the same compound, the IC50 at HIV-1 RT was determined as 2350 nM.
Turning to `N#Cc1cc(Cl)cc(Oc2ccc(CC(=O)Nc3ccc(S(N)(=O)=O)cc3Br)cc2Br)c1` [Compound I-50, 2-[3-Bromo-4-(3-chloro-5-cyano-phenoxy)-phenyl]-N-(2-bromo-4-sulfamoyl-phenyl)-acetamide], the melting point fell in the range of 168.1 to 170.4 °C. Further, the IC50 at HIV-1 RT amounted to 13.5 nM.
As to `COc1cc(CC(=O)Nc2ccc(S(N)(=O)=O)cc2C)ccc1Oc1cc(Cl)cc(C#N)c1` [Compound I-51, 2-[4-(3-Chloro-5-cyano-phenoxy)-3-methoxy-phenyl]-N-(2-methyl-4-sulfamoyl-phenyl)-acetamide], the IC50 on HIV-1 RT was 1800 nM.
Still for that read-out and setting: the result for `COc1cc(CC(=O)Nc2ccc(S(N)(=O)=O)cc2Cl)ccc1Oc1cc(Cl)cc(C#N)c1` [Compound I-52, 2-[4-(3-Chloro-5-cyano-phenoxy)-3-methoxy-phenyl]-N-(2-chloro-4-sulfamoyl-phenyl)-acetamide] reads 518 nM; that for `COc1cc(CC(=O)Nc2ccc(S(N)(=O)=O)cc2Br)ccc1Oc1cc(Cl)cc(C#N)c1` [Compound I-53, N-(2-Bromo-4-sulfamoyl-phenyl)-2-[4-(3-chloro-5-cyano-phenoxy)-3-methoxy-phenyl]-acetamide], 394 nM.
Still for that read-out and setting: to `COc1cc(CC(=O)Nc2ccc(S(N)(=O)=O)cc2C)ccc1Oc1ccc(C#N)cc1C` [Compound I-54, 2-[4-(4-Cyano-2-methyl-phenoxy)-3-methoxy-phenyl]-N-(2-methyl-4-sulfamoyl-phenyl)-acetamide] belongs 2440 nM; to `COc1cc(CC(=O)Nc2ccc(S(N)(=O)=O)cc2Cl)ccc1Oc1ccc(C#N)cc1C` [Compound I-55, N-(2-Chloro-4-sulfamoyl-phenyl)-2-[4-(4-cyano-2-methyl-phenoxy)-3-methoxy-phenyl]-acetamide], 419 nM; to `COc1cc(CC(=O)Nc2ccc(S(N)(=O)=O)cc2Br)ccc1Oc1ccc(C#N)cc1C` [Compound I-56, N-(2-Bromo-4-sulfamoyl-phenyl)-2-[4-(4-cyano-2-methyl-phenoxy)-3-methoxy-phenyl]-acetamide], 282 nM.
The same measure, in the same setting: to `Cc1cc(S(N)(=O)=O)ccc1NC(=O)Cc1ccc(Oc2cc(C#N)cc(C(F)F)c2)c(Br)c1` [Compound I-62, 2-[3-Bromo-4-(3-cyano-5-difluoromethyl-phenoxy)-phenyl]-N-(2-methyl-4-sulfamoyl-phenyl)-acetamide] belongs 116 nM; to `N#Cc1cc(Oc2ccc(CC(=O)Nc3ccc(S(N)(=O)=O)cc3Cl)cc2Br)cc(C(F)F)c1` [Compound I-63, 2-[3-Bromo-4-(3-cyano-5-difluoromethyl-phenoxy)-phenyl]-N-(2-chloro-4-sulfamoyl-phenyl)-acetamide], 53.1 nM; to `N#Cc1cc(Oc2ccc(CC(=O)Nc3ccc(S(N)(=O)=O)cc3Br)cc2Br)cc(C(F)F)c1` [Compound I-64, 2-[3-Bromo-4-(3-cyano-5-difluoromethyl-phenoxy)-phenyl]-N-(2-bromo-4-sulfamoyl-phenyl)-acetamide], 61.2 nM.
For `Cc1c(CC(=O)Nc2ccc(S(N)(=O)=O)cc2)ccc(Oc2cc(Cl)cc(C#N)c2)c1C` [Compound I-65, 2-[4-(3-Chloro-5-cyano-phenoxy)-2,3-dimethyl-phenyl]-N-(4-sulfamoyl-phenyl)-acetamide], the IC50 at HIV-1 RT amounted to 3120 nM.
Still for that read-out and setting: the result for `Cc1cc(S(N)(=O)=O)ccc1NC(=O)Cc1ccc(Oc2cc(Cl)cc(C#N)c2)c(C)c1C` [Compound I-66, 2-[4-(3-Chloro-5-cyano-phenoxy)-2,3-dimethyl-phenyl]-N-(2-methyl-4-sulfamoyl-phenyl)-acetamide] reads 81.7 nM.

Usually IC50 stands for the concentration needed to halve the response being measured. The melting point is the temperature of the solid-liquid transition.

The values above are taken from patent publication US7388111B2, “Non-nucleoside reverse transcriptase inhibitors” (Roche Palo Alto LLC, priority 2005, dated 2008).
